# Measurements published in patent publication US9447066B2, “Salts and crystal forms” (AskAt Inc., priority 2012, dated 2016).
# “Also recorded” adds a separate entry of the source. Where two headings read alike, the source gives them in different places.
# Columns and labels:
# [1] = Intrinsic dissolution experiments; type: physicochemical; details: for intrinsic dissolution rate, comparison in words: pH 6.8 buffer and water; for time to plateau / complete dissolution of tablet: pH 6.8 buffer (neutral media)
# Procedure: Intrinsic dissolution experiments were performed on the free acid, the meglumine salt, and the potassium salt. The measurements were carried out in pH 6.8 (0.05 M) phosphate buffer and water.
# The press used for tablet preparation for intrinsic dissolution rate measurements was a mini-IDR compression system (pION/Heath Scientific). Approximately 11 mg of material was pressed in the cylindrical hole of a passivated stainless steel die, to a uniform, flat surface, with an exposed area of 0.072 cm^2. The pressure applied was approximately 50 bar for 3-5 min. The sample die was inserted in a cylindrical Teflon rotating disk carrier containing an embedded magnetic stirring bar at its base. The die/stirrer assembly was placed in a flat bottomed glass vial, ready for dissolution analysis.
# The dissolution rate was measured in 20 ml of solvent (medium) and the path length of the UV meter was 2 mm. Applied stirring speed during measurement was 100 rpm. Measurements were performed at 20° C.
# [2] = In vivo pharmacokinetic study in Beagle dogs; details: male Beagle dogs; for AUC(0-t): read-out: AUC0-24h; for time-course of mean plasma concentration in comparison with API: oral capsule, FIG. 10
# Procedure: In vivo pharmacokinetic study was carried out in Beagle dogs.
# Male Beagle dogs were given single oral dose of the test articles by gelatin capsule formulation at a dose of 5 mg/kg. The actual weight of the test articles in the gelatin capsule to be administered to each animal was calculated based on the body weight measured just before the administration.
# Following dosing, blood was collected from the external jugular vein of animals at 0, 0.25, 0.5, 1, 2, 4, 6, 8, 12, 24, 48, 72, 96, 120, 144, 168, […], 288, and 360 hour after administration. Approximately 1 mL of blood will be collected into tubes containing heparin-Na.
# On the day of administration, food was given to the animals after 6-hour blood sampling.
# The drug concentrations in dog plasma were determined with the validated bioanalytical assay procedures. PK parameters were determined with non-compartmental analysis.
# [3] = Solid-state stability at 40° C. and 75% relative humidity; type: physicochemical; details: 75% RH, 1 to 4 weeks
# Procedure: The solid-state stabilities were assessed as follows: HPLC vials, containing approximately 5 mg of material, were placed in the climate chamber at 40° C. and 75% relative humidity. The samples were analyzed by XRPD and HPLC (both purity and chiral) at time points of 1, 2, 3 and 4 weeks. For each week a separate vial was prepared.
# [4] = Quantitative Solubility Assessment; type: physicochemical; details: pH 6.8 phosphate buffer (0.05 M) and water, thermodynamic from solid; neutral to basic environment
# Procedure: Quantitative Solubility Assessment were performed on the free acid, the meglumine salt, and the potassium salt. The measurements were carried out in pH 6.8 phosphate buffer (0.05M) and water.
# A standard 1.8 ml screw cap vial was charged with the material, each solvent (medium) and a magnetic stirring bar. The vials were subsequently closed and equilibrated at the ambient temperature for 24 h while stirring.
# The liquid part was retrieved with a syringe and filtrated (0.5 micron filter); the isolated mother liquors were diluted to two dilutions selected according to the calibration curve. Quantities of the API in the diluted solutions were determined via HPLC analysis (DAD). The calibration curve was obtained from two independently prepared stock solutions of the API in 50% water/50% acetonitrile.
# [5] = DVS analysis (moisture sorption); type: physicochemical
# Procedure: Moisture sorption isotherms of small samples were obtained using a DVS-1 system from Surface Measurement Systems (London, UK) with an accuracy of 0.1 μg. The relative humidity cycled between 45 and 95% RH (sorption), 95 to 0% RH (desorption) and 0 to 45% (sorption) at a constant temperature of 25° C. with a hold time of 60 minutes per step (10% relative humidity step). At the end of the DVS experiment the sample was measured by XRPD.
# The XRPD pattern of the sample after DVS measurement was not changed.
# [6] = Variable temperature XRPD (VT-XRPD); type: physicochemical; details: 25° C. to 160° C. and back to 25° C.
# Procedure: (§1) For variable humidity and temperature experiment the ANSYCO HT chamber was used. The material was placed on a fixed sample holder that was mounted inside the chamber. The humidity was applied locally and varied from 10 to 80% (dew point). The temperature variation rate was 10° C./min.
# Variable temperature XRPD (VT-XRPD) measurements of the meglumine salt were performed under the temperature of 25° C. to 160° C. (heating) and thereafter decreased to 25° C. (cooling).
# [7] = Variable humidity XRPD (VH-XRPD); type: physicochemical; details: 60 to 80% RH, 80 to 10% RH, 10 to 50% RH
# Procedure: as §1
# Variable humidity XRPD (VH-XRPD) measurements of the meglumine salt were performed under the humidity of 60 to 80% RH (1st sorption), 80 to 10% RH (desorption) and 10 to 50% (2nd sorption).
# [8] = Slurry experiments (physical stability in solvents); type: physicochemical; details: ethanol, ethyl acetate, n-heptane; 25° C.; 2 weeks
# Procedure: The slurry experiments of the meglumine salt were performed; the materials (15-30 mg) were weighed into 1.8 ml vials, charged with a stirring bar and the solvent (ethanol, ethyl acetate and n-heptane) and the slurries were placed at 25° C. under stirring. After two weeks, the slurries were subject to centrifugation and the liquid was removed with a pipette. The solids were sampled “wet” for XRPD. Subsequently the remaining solids dried under 200 mbar at room temperature for 5 days and all solids were analyzed as “dry” by XRPD.
# [9] = pH 6.8 (0.05 M) phosphate buffer, 20° C., 100 rpm
# [10] = dog, plasma, single oral dose 5 mg/kg, gelatin capsule
# [11] = dog, plasma, single oral dose 5 mg/kg, gelatin capsule, read-out: Cmax
# [12] = single oral dose 5 mg/kg, gelatin capsule
compound,measurement,setting,value
"CC(C)(C)c1cc2c(cc1Cl)C=C(C(=O)O)[C@@H](C(F)(F)F)O2 [Compound A, (S)-6-chloro-7-(1,1-dimethylethyl)-2-trifluoromethyl-2H-1-benzopyran-3-carboxylic acid]",concentration after one hour,[1]; [9],27000 ng/mL
same,"intrinsic dissolution rate, comparison in words",[1],very limited dissolution
same,concentration after one hour,"[1]; water, 20° C., 100 rpm",about 1 μg/ml
same,AUC(0-t),[2]; [10],287 µg·h/mL
same,Cmax,[2]; [11],19700 ng/mL
"CC(C)(C)c1cc2c(cc1Cl)C=C(C(=O)[O-])[C@@H](C(F)(F)F)O2.[K+] [potassium salt, (S)-6-chloro-7-(1,1-dimethylethyl)-2-trifluoromethyl-2H-1-benzopyran-3-carboxylic acid potassium salt]",chemical purity after solid-state stability test,[3],≥ 99.9%
same,enantiomeric purity after solid-state stability test,[3],≥ 99.9%
same,solubility at 24 h,[4],> 120 mg/mL
same,plateau concentration (dissolution of complete tablet),[1]; [9],370 µg/mL
same,time to plateau / complete dissolution of tablet,[1]; 20° C.,≤ 15 min
same,"intrinsic dissolution rate, comparison in words",[1]; potassium salt,much better than the free acid; also recorded: dissolved the fastest in all cases
same,time to complete dissolution of tablet,"[1]; water, 20° C.",≤ 5 min
same,final concentration (complete tablet dissolved),"[1]; water, 20° C., 100 rpm",400 µg/mL
same,AUC(0-t),[2]; [10],436 µg·h/mL
same,Cmax,[2]; [11],28200 ng/mL
same,time-course of mean plasma concentration in comparison with API,[2],rapidly increased
"(S)-6-chloro-7-(1,1-dimethylethyl)-2-trifluoromethyl-2H-1-benzopyran-3-carboxylic acid meglumine salt",maximum water uptake,"[5]; DVS, at 95% RH, 25° C.",2.0%
same,XRPD pattern of the sample after DVS measurement,[5]; after DVS cycle,not changed
same,crystal form through heating-cooling cycle (VT-XRPD),[6],remained unchanged
same,crystal form through sorption-desorption-sorption cycle (VH-XRPD),[7],remained unchanged
same,physical stability of wet and dry solids in slurry (XRPD),[8],physically stable
same,"physical and chemical stability (XRPD, HPLC)",[3],remained physically and chemically stable
same,plateau concentration (dissolution of complete tablet),[1]; [9],about 250 μg/ml
same,time to plateau / complete dissolution of tablet,[1]; 20° C.,45 min
same,"intrinsic dissolution rate, comparison in words",[1],much better than the free acid
same,concentration reached in the first 9 min,"[1]; water, 20° C., 100 rpm",about 210 μg/ml
same,final concentration (complete tablet dissolved),"[1]; water, 20° C., 100 rpm",250 µg/mL
same,time-course of mean plasma concentration in comparison with API,[2],rapidly increased
same,AUC0-24h,[2]; [12],"381,000 ng · hr/mL"
same,Cmax,[2]; [12],"28,200 ng/mL"
